# Data as given in US9133128B2, “Pyrazole derivatives as cannabinoid receptor 1 antagonists” (Research Triangle Institute, priority 2011, dated 2015).
# Tests used:
# CB1 [1] = target: T1, CB1 (Homo sapiens, UniProt P21554); assay: Radioligand displacement of [3H]SR141716 at CB1; assay type: binding; conditions: Table 4; read-out: Ki (nM) v. [3H] SR141716 at CB1
# T1 construct: expressed in transfected cells; host or cells: CHO-K1 (membranes)
# CB1 [2] = target: T1, CB1; assay: CB1 activated Gαq16-coupled intracellular calcium mobilization assay in CHO-K1 cells (apparent affinity Ke); assay type: cell-based
# CB2 = target: T2, CB2 (Homo sapiens, UniProt P34972); assay: Displacement of [3H]CP55940 in membranes of CHO-K1 cells over-expressing CB2; assay type: binding; conditions: Table 4; read-out: Ki (nM) v. [3H] CP55940 at CB2
# T2 construct: expressed in transfected cells; host or cells: CHO-K1 (membranes)
# Experimental: All compounds were characterized by H^1 NMR and evaluated using a calcium mobilization assay. Each compound was pharmacologically characterized using a functional fluorescent CB1 activated Gαq16-coupled intracellular calcium mobilization assay in CHO-K1 cells as has been previously described and apparent affinity (Ke) values were determined. See Zhang et al., J. Med. Chem. 2010, 53, 7048, which is incorporated herein by reference. Further characterization of select compounds was performed using radioligand displacement of [3H]1 and equilibrium dissociation constant (Ki) values were determined. Selectivity of these compounds at CB1 versus CB2 was also determined by obtaining Ki values at either receptor using displacement of [3H]CP55940 in membranes of CHO-K1 cells over-expressing either receptor. Data reported are average values from 3-6 measurements.
# Select compounds were chosen for further study in radioligand displacement assays using radiolabeled rimonobant, SR141716 ([^3H]1). […] Selectivity against the CB2 receptor was determined by comparing the compound displacement of radiolabeled CP55940, which is a cannabinoid known to act as a full agonist at both CB1 and CB2 receptors. In general, tested compounds were selective for CB1 over CB2.
# MDCK-MDR = MDCK-MDR transport (apical to basal); assay type: in vitro ADME; conditions: Table 4
# CB1 [3] = target: T1, CB1; assay: Displacement of [3H]CP55940 in membranes of CHO-K1 cells over-expressing CB1; assay type: binding; conditions: Table 4; for Binding Selectivity using CP55940 Displacement: CB2 Ki over CB1 Ki; for Ki: read-out: Ki (nM) v. [3H] CP55940 at CB1
# T1 sequence (P21554 whole entry): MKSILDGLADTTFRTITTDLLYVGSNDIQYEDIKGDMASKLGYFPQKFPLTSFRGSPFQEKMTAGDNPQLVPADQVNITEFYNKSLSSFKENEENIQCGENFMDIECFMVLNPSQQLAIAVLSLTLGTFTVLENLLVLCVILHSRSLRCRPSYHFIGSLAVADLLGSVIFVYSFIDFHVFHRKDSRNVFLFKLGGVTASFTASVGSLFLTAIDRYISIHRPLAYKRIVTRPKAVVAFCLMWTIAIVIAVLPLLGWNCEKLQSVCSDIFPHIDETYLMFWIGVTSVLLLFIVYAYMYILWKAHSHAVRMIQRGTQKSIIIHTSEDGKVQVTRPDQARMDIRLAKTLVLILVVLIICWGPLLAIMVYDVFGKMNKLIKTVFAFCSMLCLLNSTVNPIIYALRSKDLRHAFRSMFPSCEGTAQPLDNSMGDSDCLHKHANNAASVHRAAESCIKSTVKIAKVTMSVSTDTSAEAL
# T2 sequence (P34972 whole entry): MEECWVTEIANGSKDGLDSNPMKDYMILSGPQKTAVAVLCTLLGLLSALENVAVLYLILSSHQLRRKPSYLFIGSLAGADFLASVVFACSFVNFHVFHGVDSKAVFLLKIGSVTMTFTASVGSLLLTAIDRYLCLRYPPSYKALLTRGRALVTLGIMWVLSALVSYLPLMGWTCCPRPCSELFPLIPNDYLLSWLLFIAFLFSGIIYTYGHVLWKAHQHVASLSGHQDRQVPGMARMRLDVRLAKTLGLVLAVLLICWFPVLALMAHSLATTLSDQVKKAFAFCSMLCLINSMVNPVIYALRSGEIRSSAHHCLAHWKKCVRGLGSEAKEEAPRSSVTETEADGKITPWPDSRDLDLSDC
Ki (CB1 [1]),Ki (CB2),% MDCK-MDR transport (apical to basal) (MDCK-MDR),Binding Selectivity using CP55940 Displacement (CB1 [3]),Ki (CB1 [3]),SMILES,Kb (CB1 [2])
–,8390 nM,<1%,421.6,19.9 nM,"Cc1c(C(=O)N2CCC(C(=O)NC(C)(C)C)(c3ccccc3)CC2)nn(-c2ccc(Cl)cc2Cl)c1-c1ccc(Cl)cc1 [Cl, phenyl, C(O)NH(t-butyl), N-(tert-butyl)-1-(5-(4-chlorophenyl)-1-(2,4-dichlorophenyl)-4-methyl-1H-pyrazole-3-carbonyl)-4-phenylpiperidine-4-carboxamide]",–
18.1 nM,≥ 20000 nM,<1%,424.6,47.1 nM,"Cc1c(C(=O)N2CCC(NC(=O)NC(C)(C)C)(c3ccccc3)CC2)nn(-c2ccc(Cl)cc2Cl)c1-c1ccc(Cl)cc1 [Cl, phenyl, NHC(O)NH(t-butyl), 3-tert-butyl-1-(1-{[5-(4-chlorophenyl)-1-(2,4-dichlorophenyl)-4-methyl-1H-pyrazol-3-yl]carbonyl}-4-phenylpiperidin-4-yl)urea]",–
–,4910 nM,<1%,364.0,13.5 nM,"Cc1c(C(=O)N2CCC(NC(=O)NC(C)C)(c3ccccc3)CC2)nn(-c2ccc(Cl)cc2Cl)c1-c1ccc(Cl)cc1 [Cl, phenyl, NHC(O)NHCH(CH3)2, 1-(1-{[5-(4-chlorophenyl)-1-(2,4-dichlorophenyl)-4-methyl-1H-pyrazol-3-yl]carbonyl}-4-phenylpiperidin-4-yl)-3-(propan-2-yl)urea]",–
6.02 nM,2110 nM,<1%,48.9,42.3 nM,"Cc1c(C(=O)N2CCC(NC(=O)OC(C)(C)C)(c3ccccc3)CC2)nn(-c2ccc(Cl)cc2Cl)c1-c1ccc(Cl)cc1 [Cl, phenyl, NHC(O)O(t-butyl), tert-Butyl N-(1-{[5-(4-chlorophenyl)-1-(2,4-dichlorophenyl)-4-methyl-1H-pyrazol-3-yl]carbonyl}-4-phenylpiperidin-4-yl)carbamate]",–
3.28 nM,41 nM,3.14 ± 0.89%,5.6,7.27 nM,"Cc1c(C(=O)N2CCC(NS(C)(=O)=O)(c3ccccc3)CC2)nn(-c2ccc(Cl)cc2Cl)c1-c1ccc(Cl)cc1 [Cl, phenyl, NHSO2CH3, N-(1-{[5-(4-chlorophenyl)-1-(2,4-dichlorophenyl)-4-methyl-1H-pyrazol-3-yl]carbonyl}-4-phenylpiperidin-4-yl)methanesulfonamide]",–

SMILES,Ki (CB1 [1]),Ki (CB2),% MDCK-MDR transport (apical to basal) (MDCK-MDR),Binding Selectivity using CP55940 Displacement (CB1 [3]),Ki (CB1 [3]),Kb (CB1 [2])
"Cc1c(C(=O)N2CCC(C(N)=O)(c3ccccc3)CC2)nn(-c2ccc(Cl)cc2Cl)c1-c1ccc(Cl)cc1 [Cl, phenyl, C(O)NH2, 1-{[5-(4-chlorophenyl)-1-(2,4-dichlorophenyl)-4-methyl-1H-pyrazol-3-yl]carbonyl}-4-phenylpiperidine-4-carboxamide]",0.44 nM,5500 nM,8.1 ± 11.5%,1600.0,3.44 nM,0.45 nM
